Consider 6 compounds from ChEMBL document CHEMBL4382277, “Novel Fluorescence Competition Assay for Retinoic Acid Binding Proteins” (ACS Med Chem Lett, 2018).

Molecules are shown by their SMILES. Activity calls are given as the source filed them. No cut-off for these calls is given here.

Assay [1] concerns the target T1, Cellular retinoic acid-binding protein 2 (Homo sapiens) (UniProt P29373).
T1 sequence (whole entry): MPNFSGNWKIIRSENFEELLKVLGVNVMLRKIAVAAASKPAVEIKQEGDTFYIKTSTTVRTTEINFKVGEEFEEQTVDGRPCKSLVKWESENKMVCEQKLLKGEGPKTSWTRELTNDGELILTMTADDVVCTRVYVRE
The assay is described as follows: Displacement of DC271 from CRABP2 (unknown origin) at 200 to 1600 nM by fluorescence assay.

Assay [2] has as its target T2, Cellular retinoic acid-binding protein 2 (Homo sapiens, UniProt P29373).
T2 sequence (P29373 whole entry): T1 sequence (whole entry)
The assay is described as follows: Displacement of DC271 from CRABP2 (unknown origin) by fluorescence assay.

For `c1ccc2ncccc2c1`, the inhibition entry in assay [1] is “inactive”. With `CC1(C)CCC(C)(C)c2cc(C#Cc3ccc(C(=O)O)cc3)ccc21`, the Kd (usually a measure of binding affinity in units of concentration) in assay [2] was found to be 0.16 µM. In the case of `CC1=C(/C=C/C(C)=C\C=C\C(C)=C\C(=O)O)C(C)(C)CCC1`, the inhibition result in assay [1] is “Active”. With `O=C(O)c1ccccc1`, in assay [1], the inhibition entry was “inactive”.

In the case of `CC1=C(/C=C/C(C)=C/C=C/C(C)=C\C(=O)O)C(C)(C)CCC1`, in assay [1], the inhibition result was “inactive”. For `CC1=C(/C=C/C(C)=C/C=C/C(C)=C/C(=O)O)C(C)(C)CCC1`, in assay [1], the inhibition result was “Active”.
